Measurements: patent publication US6943278B2, “Transgenic Drosophila having a disrupted Parkin gene and exhibits reduced climbing ability” (GenExel, Inc., priority 2002, dated 2005)

Experiments:
Format in all cases: in vivo, Drosophila
wild type flies = assay: climbing ability of wild type flies fed D- or L-dopa; settings: for effect on climbing response (in words): wild type flies fed 1 mM compound for 10 days; for % climbing abilities, WT: wild type flies fed 1 mM compound on dry yeast for 10 days
Procedure: (§1) parkin mutant flies older than 3-4 days after eclosion moved extremely slowly or not at all, remaining on the bottom of the culture vials. To quantify the locomotor behavioral defects of parkin mutant flies, the climbing ability of the mutants was examined. To do so, fifteen flies were placed in a plastic vial, and gently tapped to the bottom of the vial. The number of flies at the top of the vial was counted after 18 seconds of climbing. Ten trials were performed for each time point. The trial numbers were then averaged, and the resulting mean was normalized by the mean value of 1-day-old wild type. These used as the climbing scores for each single group of flies on a particular day. The experiment was repeated five times, with independently derived transgenic lines. The climbing score for five repeated experiments was then averaged, and a group mean and standard error were obtained. As previously reported (Ganetzky and Flanagan, Exp. Gerontol., 13:189 (1978); Le Bourg and Lints, Gerontology 8:59 (1992); Feany and Bender, 2000; Pendleton et al., J. Pharmacol. Exp. Ther. 300:91 (2002)), wild type flies rapidly climb to the top of a vial when tapped to the bottom, and have a strong tendency to remain at the top. However, as the flies get older, they no longer climb to the top of the vial, in other words they lose climbing ability (Ganetzky and Flanagan, 1978; Le Bourg and Lints, 1992; Feany and Bender, 2000; Pendleton et al., 2002).
(§2) A compound was screened for its ability to rescue the defective climbing response of Dpark^1 and Dpark^2 mutants. Flies were reared and crossed on Caltech medium (Ashbumer, Drosophila, Cold Spring Harbor, N.Y.: Cold Spring Harbor Laboratory Press (1989)) at 25° C. Wild type or parkin mutant flies were fed either L-DOPA or D-DOPA for 10 days by placing dry yeast that was soaked with 0.3 mL of either 1 mM L-DOPA or 1 mM D-DOPA on the bottom of the vial.

[1] = test system: Dpark^2 parkin mutant flies; assay: rescue of defective climbing response of Dpark^2 mutant flies; settings: for % climbing abilities, Dpark2/Dpark2: Dpark2/Dpark2 flies fed 1 mM compound on dry yeast for 10 days, relative to unfed wild type control; for effect on climbing response (in words): Dpark^2 flies fed 1 mM compound for 10 days
Procedure: as §1, §2

[2] = test system: Dpark^1 parkin mutant flies; assay: rescue of defective climbing response of Dpark^1 mutant flies; settings: for % climbing abilities, Dpark1/Dpark1: Dpark1/Dpark1 flies fed 1 mM compound on dry yeast for 10 days, relative to unfed wild type control; for effect on climbing response (in words): Dpark^1 flies fed 1 mM compound for 10 days
Procedure: as §1, §2

Row | SMILES | effect on climbing response (in words) (wild type flies) | % climbing abilities, WT (wild type flies) | % climbing abilities, Dpark2/Dpark2 [1] | % climbing abilities, Dpark2/Dpark2 ([1]; listed as L-DOPA) | effect on climbing response (in words) [1] | % climbing abilities, Dpark1/Dpark1 [2] | % climbing abilities, Dpark1/Dpark1 ([2]; listed as L-DOPA) | effect on climbing response (in words) [2]
1 | N[C@@H](Cc1ccc(O)c(O)c1)C(=O)O [L-dopa, L-DOPA] | Neither L-DOPA nor D-DOPA was effective | 100.59 ± 2.73% | 68.51 ± 10.09% | ~70% | significantly restored the climbing response | 68.20 ± 6.06% | ~70% | significantly restored the climbing response
2 | N[C@H](Cc1ccc(O)c(O)c1)C(=O)O [D-dopa, D-DOPA] | Neither L-DOPA nor D-DOPA was effective | 101.90 ± 2.72% | 37.75 ± 2.44% |  | not effective | 33.221 ± 1.87% |  | not effective
